Measurements: patent publication US20260216134A1, “CHARGED PI-CONJUGATED MOLECULES FOR THE TREATMENT OF MICROBIAL INFECTIONS” (priority 2023, published 2026)

Key:
[1] = test system: MRSA USA300; assay: Therapeutic index calculation (IC50 of mammalian cell lines / MIC); details: ratio of average IC50 for A549 and HEK293 to MIC in MRSA USA300
Procedure: (§1) The biocompatibility of charged pi-conjugated compounds with mammalian cell lines was evaluated by studying the effects of different charged pi-conjugated compound concentrations on the viability of two mammalian cell lines: A549 (epithelial-like lung cells) and HEK293 (epithelial-like kidney cells). […] Dose-response curves were used to determine IC50 values, that is, the concentration of charged pi-conjugated compound needed to inhibit cell viability by 50%. […] The MIC of MRSA USA300 was used to calculate the therapeutic index. MRSA USA300 is a major contributor to community-associated MRSA infections, including skin and soft tissue infections, bacteraemia, endocarditis, bone and joint infections and nosocomial infections. […]
(§2) The biocompatibility of charged pi-conjugated compounds with mammalian cell lines was assessed by determining their impact on the mitochondrial activity of human alveolar basal epithelial adenocarcinoma cells (A549) and human embryonic kidney cells (HEK293T) cells, using the Presto Blue assay according to the manufacturer's protocol. […] After 8 h, Presto Blue cell viability reagent (Thermo Fisher Scientific, Waltham, MA, USA) was added to the cells, and after 2 h of incubation, fluorescence was measured using a microplate reader (BioTek Instruments Inc., Winooski, VT, USA). […] The therapeutic index was calculated from the ratio between IC50 and the MIC.

[2] = test system: A549 (epithelial-like lung cells); assay: Presto Blue viability assay, A549; type: cell-based; details: Homo sapiens, 8 h treatment, read-out: IC50 (concentration needed to inhibit cell viability by 50%)
Procedure: as §1, §2

[3] = test system: HEK293 (epithelial-like kidney cells); assay: Presto Blue viability assay, HEK293; type: cell-based, human; details: Homo sapiens, HEK293, 8 h, read-out: IC50 (concentration needed to inhibit cell viability by 50%)
Procedure: as §1, §2

[4] = test system: Gram-positive strains; assay: MIC / MIC50 by broth microdilution in panel of Gram-positive strains; type: cell-based; details: MIC50 over all Gram-positive strains tested (Table 2)
Procedure: Antibacterial activity was assessed by determining the minimal inhibitory concentration (MIC) and the minimal bactericidal concentrations (MBC) and by monitoring time-dependent bacterial killing of exponentially growing cells. Bacterial cell suspensions (OD600≈0.02 in cation-adjusted Muller-Hinton Broth) were treated with increasing concentrations of the different molecules. The minimal inhibitory concentration (MIC) was defined as the minimal concentration of the molecule resulting in complete bacterial growth arrest. The minimal bactericidal concentration (MBC) was defined as the lowest concentration of the molecule that killed 99.9% of the inoculum. A molecule was determined to be bactericidal if the ratio of the MBC to the MIC was less than 4 to 6. […] In M. smegmatis, the antibacterial activity of charged pi-conjugated compounds was generally lower.
The MIC values for all Gram-positive strains tested (Table 2) were used to calculate the MIC50, i.e., the minimum inhibitory concentration needed to inhibit the growth of 50% of the tested isolates (FIG. 5A). […] When the average MIC50 values were evaluated, the most susceptible bacterial genera were Streptococcus sp., followed by Staphylococcus sp. In contrast, Propionibacterium sp. had the highest average MIC50 (FIG. 5B).
The broth microdilution method was used to determine the MIC of charged pi-conjugated compounds according to the CLSI guidelines. Charged pi-conjugated compound stock solutions (16 mM) were prepared in dimethyl sulfoxide (DMSO). Serial twofold dilutions of the charged pi-conjugated compounds were freshly prepared using the appropriate liquid media (Table 2), and 100 μL of each dilution was added to the appropriate wells of 96-well microtiter plates. The bacterial inoculum was further diluted in liquid media, and 100 μL was added to each well, resulting in a final cell density of ≈5×10^5 CFU mL^−1. […] A molecule was determined to be bactericidal if the ratio of the MBC to the MIC was less than 4 to 6. […]

[5] = test system: MRSA USA300; assay: In vivo anti-infective activity in G. mellonella infected with MRSA; set-up: species or system Galleria mellonella; details: 10-80 μM; vehicle-treated infected worms one day
Procedure: The in vivo anti-infective capacity of charged pi-conjugated compounds was evaluated in the invertebrate model G. mellonella infected with MRSA USA300. The survival curves shown in FIG. 21 illustrate the efficacy of two charged pi-conjugated compounds, BL 248 and BL 273, against MRSA USA300 infection in G. mellonella. With increasing concentrations of both molecules, there was a discernible improvement in survival compared with the vehicle-treated control group.
To evaluate the in vivo anti-infective activity of charged pi-conjugated compounds, MRSA USA300 was cultured overnight in tryptic soy broth and diluted to ~2×10^7 CFU mL^−1 in sterile phosphate-buffered saline based on OD600. Cohorts of five G. mellonella larvae (~300 mg each) were injected with 10 μL of the diluted bacterial suspension (2×10^5 […]) via the last left proleg, following larvae sterilization with 70% ethanol. One hour post-infection, the larvae were injected with increasing concentrations of charged pi-conjugated compounds or 1% DMSO (in PBS) as a negative control. Uninfected larvae were also used as controls. Larvae were incubated at 37° C., and survival was monitored afterward. Death was defined by complete melanization of the larval body and lack of movement in response to touch.

[6] = test system: HEMa (normal melanocytes); assay: Toxicity on A375 melanoma versus normal melanocytes (HEMa arm); type: cell-based; details: for safety for normal skin melanocyte cells (HEMa): 1 μM concentration
Procedure: (§3) FIG. 32 provides evidence of toxicity of charged pi-conjugated compounds on HEMa (normal melanocytes) versus on A375 melanoma using 1 day of incubation versus 2 days of incubation. BL-204, BL-141-2, BL-304 are aminocyanines. In contrast, TS-1-32 and GL-261-2 are two names for a carboxycyanine compound shown as GL-261-2 in FIG. 23.
This characterization is accurate for long exposures (~24 h) and in 200,000 cells/mL. The limits of toxic concentration (referenced herein as a therapeutic window) can vary with the exposure time and total cell number present in the test. For example, 1 μM concentration of charged pi-conjugated compounds are safe when used at 30 min exposure in the cell culture at 200,000 cells/mL. However, about higher than 2 μM cyanine becomes toxic (~8 μM) even at short exposure time (~30 min) for 200,000 cells/mL. In contrast, for a solid tumor this lethal concentration is expected to be higher since hundreds of millions of cells are contained in a small solid tumor. The dose may be calibrated and normalized by the total number of cells. The correct therapeutic window to kill cancer cells should be expressed in μg of charged pi-conjugated compound per 1 million of cells or ug of charged pi-conjugated compound per gram of cells. […] Therefore, the presently disclosed charged pi-conjugated compounds may be useful in a clinical application in patients where the charged pi-conjugated compounds could protect the normal tissue and selectively cause toxicity to cancer cells.

[7] = Crystal violet cytotoxicity test in A375 cells without light activation; type: cell-based, human; details: human
Procedure: The inhibitory concentration of charged pi-conjugated compounds needed to inhibit the cell growth by 50% (toxicity IC50).
Most of the charged pi-conjugated compounds are aminocyanines which are functionalized with alkyl amine group. The charged pi-conjugated compounds were added to cell cultures of A375 cancer cells (human melanoma) and their cytotoxicity was quantified by the crystal violet test and/or clonogenic assays for cell viability. […] The longer the exposure the most cytotoxic the charged pi-conjugated compounds are towards A375 cells. […] The same behavior is observed: the longer the exposure, the more cytotoxic. All molecules presented here are aminocyanines except GL-261-2 which is a carboxyl-cyanine. […] This was the first time a therapeutic window of concentration that can be tuned to selectively kill cancer and/or protect cells was suspected. In finding this therapeutic window concentration and time of exposure are important variables that should be fine tuned.
Based on the finding described above, a larger set of charged pi-conjugated compounds was evaluated for cytotoxicity against A375 cancer cells as shown in FIG. 25 and FIG. 26.
The IC50 is the concentration needed to inhibit the cell viability by 50%. These molecules in FIG. 25 and FIG. 26 were evaluated by crystal violet assay and using 2 days of exposure.

[8] = Clonogenic assay cytotoxicity in A375 cells without light; type: cell-based, human; details: human
Procedure: FIGS. 28A-28B provide a summary of the evidence of the cytotoxicity of charged pi-conjugated compounds without light. Toxicity was measured using clonogenic assay with 7 hours of incubation (contact time between molecules and A375 cells) and 7 days for colony formation. (FIG. 28A) The lethal concentration of the cyanine molecules to kill 50% of the A375 cells (Tox LC50) without light activation. (FIG. 28B) Chemical structure of exemplary charged pi-conjugated compounds. On average, 300 cells equal to 300 colonies were seeded and analyzed for each data point.
Both properties were measured using clonogenic assay with 7 hours of incubation (contact time between molecules and A375 cells) and 7 days for colony formation. 300 cells were seeded and analyzed for each data point.
More cytotoxicity tests were conducted in some additional molecules and using clonogenic assay for cell viability (FIG. 28). A375 cells were exposed to charged pi-conjugated compounds for 7 hours, in contrast to the previously presented assays which were conducted with crystal violet assay and 2 days of exposure. The data points showing the cytotoxicity quantification for each individual molecule are presented in FIG. 29, with resulting IC50 values summarized in Table 4.

[9] = test system: A375 melanoma; assay: Toxicity on A375 melanoma versus normal melanocytes (A375 arm); type: cell-based, human; details: 1 μM concentration
Procedure: as §3
This characterization is accurate for long exposures (~24 h) and in 200,000 cells/mL. The limits of toxic concentration (referenced herein as a therapeutic window) can vary with the exposure time and total cell number present in the test. For example, 1 μM concentration of charged pi-conjugated compounds are safe when used at 30 min exposure in the cell culture at 200,000 cells/mL. However, about higher than 2 μM cyanine becomes toxic (~8 μM) even at short exposure time (~30 min) for 200,000 cells/mL. In contrast, for a solid tumor this lethal concentration is expected to be higher since hundreds of millions of cells are contained in a small solid tumor. The dose may be calibrated and normalized by the total number of cells. The correct therapeutic window to kill cancer cells should be expressed in μg of charged pi-conjugated compound per 1 million of cells or ug of charged pi-conjugated compound per gram of cells. […]

[10] = test system: S. aureus ATCC 25923; assay: Mutation frequency (rifampin-resistant colonies) on repeated treatment; type: cell-based, Staphylococcus aureus; details: frequency of rifampin-resistant colonies
Procedure: In addition, the mutation frequency (assessed as the frequency of rifampin-resistant colonies) of S. aureus ATCC 25923 subjected to repeated treatment with charged pi-conjugated compound or the conventional antibiotic ciprofloxacin was determined.
Mutation frequency was determined using rifampin resistance as a marker. The stored cells were revived overnight in LB broth and then plated on LB agar with and without rifampin (100 mg mL^−1) (Schaaff et al., 2002). The mutation frequency was calculated as the ratio of rifampin-resistant colonies to the total number of colonies.

Row | SMILES | cell viability of normal skin melanocyte cells [6] | safety for normal skin melanocyte cells (HEMa) [6] | IC50 at 2 days [7] [nM] | IC50 at 7 h [8] [nM] | selectivity for killing cancer cells (A375) [9] | also measured
1 | CN(C)C(=O)CN1c2ccc3ccccc3c2C(C)(C)C1/C=C/C1=CC(=C/C=C2/N(C)c3ccc4ccccc4c3C2(C)C)/CCC1.I (stereo not shown) [BL 248] |  |  |  |  |  | therapeutic index [1]: 9.3; IC50 [2]: 14.7 µM
2 | CN(C)C(=O)CN1/C(=C/C=C2C=C(/C=C/C3=[N+](CC(=O)N(C)C)c4ccc5ccccc5c4C3(C)C)CCC/2)C(C)(C)c2c1ccc1ccccc21.[Br-] [BL 273, 3-(2-(dimethylamino)-2-oxoethyl)-2-((E)-2-((E)-3-((E)-2-(3-(2-(dimethylamino)-2-oxoethyl)-1,1-dimethyl-1,3-dihydro-2H-benzo[e]indol-2-ylidene)ethylidene)cyclohex-1-en-1-yl)vinyl)-1,1-dimethyl-1H-benzo[e]indol-3-ium] |  |  |  |  |  | IC50 [3]: 13.7 µM; antibacterial activity according to MIC50 [4]: strongest antibacterial activity; survival of infected worms [5]: three or more days
3 | CN(C)CCCCCC[N+]1=C(/C=C/C2=CC(=C/C=C3/N(C)c4ccc5ccccc5c4C3(C)C)/CCC2)C(C)(C)c2c1ccc1ccccc21.[I-] [BL-141-2, 3-(6-(dimethylamino)hexyl)-1,1-dimethyl-2-((E)-2-((E)-3-((E)-2-(1,1,3-trimethyl-1,3-dihydro-2H-benzo[e]indol-2-ylidene)ethylidene)cyclohex-1-en-1-yl)vinyl)-1H-benzo[e]indol-3-ium] | increased the cell viability | safe for normal skin melanocyte cells | 750 | 400 | selective to specifically kill cancer cells | 
4 | CN(C)CC[N+]1=C(/C=C/C2=CC(=C/C=C3/N(C)c4ccc5ccccc5c4C3(C)C)/CCC2)C(C)(C)c2c1ccc1ccccc21.[I-] [BL-204, 3-(2-(dimethylamino)ethyl)-1,1-dimethyl-2-((E)-2-((E)-3-((E)-2-(1,1,3-trimethyl-1,3-dihydro-2/I-benzo[e]indol-2-ylidene)ethylidene)cyclohex-1-en-1-yl)vinyl)-1H-benzo[e]indol-3-ium] | increased the cell viability | safe for normal skin melanocyte cells | 600 | 220 | selective to specifically kill cancer cells | 
5 | O=C(O)c1cn(C2CC2)c2cc(N3CCNCC3)c(F)cc2c1=O [ciprofloxacin] |  |  |  |  |  | mutation rate across treatment cycles [10]: marked increase across treatment cycles
